Format in all cases: toxicity, cell-based
For one data set, the system named is HEK-293T. The data set is described as follows: Incucyte cell viability with HEK293T. The conditions noted are these: human, 10 µM, compound concentration 10 uM.
A further data set deals with Fibroblast. Nature of the data set: Incucyte cell viability with human fibroblast. The conditions noted are these: 10 µM, compound concentration 10 uM.
A further data set relates to U2OS. Nature of the data set: Incucyte cell viability with U2OS. The conditions noted are these: human, 10 µM, compound concentration 10 uM.
[1] abbreviates: 0 h, replicate number 1, timepoint 0 hours.
Setting [2] is: 6 h, replicate number 1, timepoint 6 hours.
The mark [3] stands for this setting: 6 h, replicate number 2, timepoint 6 hours.
Setting [4] is: 12 h, replicate number 1, timepoint 12 hours.
The mark [5] stands for this setting: 12 h, replicate number 2, timepoint 12 hours.
Setting [6] is: 18 h, replicate number 1, timepoint 18 hours.
Setting [7] is: 18 h, replicate number 2, timepoint 18 hours.
The mark [8] stands for this setting: 24 h, replicate number 1, timepoint 24 hours.
Where [9] appears, read: 24 h, replicate number 2, timepoint 24 hours.
The mark [10] stands for this setting: 0 h, replicate number 2, timepoint 0 hours.
Also: filed as whole numbers so only -1 and 0 and 1 occur.

With `C[C@H]1C[C@H]2[C@@H]3CCC4=CC(=O)C=C[C@]4(C)[C@@]3(Cl)[C@@H](O)C[C@]2(C)[C@@]1(O)C(=O)CO` [BECLOMETHASONE], the “Growth Rate” value with HEK-293T (setting [1]) worked out at 0; in the data set with HEK-293T (setting [2]) it was 1; in the data set with HEK-293T (setting [3]), 0; in the data set on HEK-293T (setting [4]), 1; in the data set with HEK-293T (setting [5]), 0; in the data set with HEK-293T (setting [6]), 1. For the same molecule, the “Growth Rate” value in the data set with HEK-293T (setting [7]) amounted to 0; in the data set with HEK-293T (setting [8]) it was 1; with HEK-293T (setting [9]) it was 0; in the data set with Fibroblast (setting [1]) it was 0; with Fibroblast (setting [3]), 0; in the data set with U2OS (setting [1]), 0. The “Growth Rate” value was found to be 0 with U2OS (setting [3]), 1 with U2OS (setting [4]), 1 in the data set with U2OS (setting [6]) and 1 with U2OS (setting [8]).
Consider `CC1=C2C[C@H]3[C@@H](CC=C4C[C@@H](O)CC[C@@]43C)[C@@H]2CC[C@]12O[C@@H]1C[C@H](C)CN[C@H]1[C@H]2C` [CYCLOPAMINE], for which the “Growth Rate” value in the data set on HEK-293T (setting [1]), in the data set with HEK-293T (setting [2]), with HEK-293T (setting [4]), in the data set on HEK-293T (setting [6]), in the data set with HEK-293T (setting [8]) and in the data set on Fibroblast (setting [1]) was 0 each time. Further, the “Growth Rate” value is reported as 1 in the data set on Fibroblast (setting [10]); 1 with Fibroblast (setting [2]); 0 in the data set with Fibroblast (setting [4]); 0 in the data set with Fibroblast (setting [6]); 1 in the data set on Fibroblast (setting [7]); 0 in the data set on Fibroblast (setting [8]). The “Growth Rate” value in the data set on U2OS (setting [1]) was determined as 0; in the data set with U2OS (setting [3]) it was 0; in the data set with U2OS (setting [5]), 1; in the data set with U2OS (setting [7]) it was 1; in the data set with U2OS (setting [8]) it was 1.
On to `Cc1c(F)cccc1NC(=O)Nc1ccc(Cl)c(S(=O)(=O)[C@H]2CCCNC2)c1O` [DANIRIXIN], for which the “Growth Rate” value in the data set on HEK-293T (setting [1]), with HEK-293T (setting [2]), in the data set with HEK-293T (setting [4]), with HEK-293T (setting [6]), in the data set with HEK-293T (setting [8]) and with Fibroblast (setting [1]) was 0 in each case. Besides, the “Growth Rate” value with Fibroblast (setting [4]) was 1; in the data set on Fibroblast (setting [6]) it was 1; in the data set with Fibroblast (setting [8]), 1; with U2OS (setting [1]), 0; with U2OS (setting [10]), 1; in the data set with U2OS (setting [2]), 0. Moreover, the “Growth Rate” value with U2OS (setting [3]) was determined as 1; with U2OS (setting [4]), 0; in the data set on U2OS (setting [5]), 1; in the data set on U2OS (setting [6]), 0; in the data set with U2OS (setting [7]) it was 1; in the data set on U2OS (setting [8]), 0. The “Growth Rate” value in the data set on U2OS (setting [9]) is listed as 1.
Consider `CCN(CCO)CCCOc1ccc2c(Nc3cc(CC(=O)Nc4cccc(F)c4)[nH]n3)ncnc2c1` [DEFOSBARASERTIB], for which the “Growth Rate” value is 1 in the data set with HEK-293T (setting [10]); 1 with HEK-293T (setting [3]); 1 in the data set on HEK-293T (setting [8]); 1 with Fibroblast (setting [10]); 0 in the data set on Fibroblast (setting [2]); 0 with Fibroblast (setting [4]). The “Growth Rate” value with Fibroblast (setting [6]) was 0; in the data set on Fibroblast (setting [8]), 0; in the data set on U2OS (setting [1]), 1; in the data set with U2OS (setting [2]) it was 0; in the data set with U2OS (setting [4]), 0; in the data set on U2OS (setting [6]) it was 0. Further, the “Growth Rate” value in the data set with U2OS (setting [8]) was 0.
